# Test results from ChEMBL document CHEMBL1201862, “PubChem BioAssay data set” (2004).
#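 Cultured in 96-well plates, cells were exposed to test compound for 48 hours across five concentrations. Here, GI50 denotes the concentration required for 50% inhibition of growth.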 Calls of active or inactive are those of the source. No stated cut-off is given here; in the data, active = GI50 up to about 1.1 µM and inactive = higher.
# Key:
# Experiment in all cases: DTP human tumour cell line panel, 48 h
# [1] = tested on: UACC-62
# [2] = tested on: SF-268
# [3] = tested on: NCI-H460
# [4] = tested on: HCT-116
# [5] = tested on: CCRF-CEM
# [6] = tested on: ACHN
# [7] = tested on: NCI-H226
# [8] = tested on: UO-31
# [9] = tested on: HT-29
# [10] = tested on: MCF7
# [11] = tested on: M14
# [12] = tested on: DU-145
# [13] = tested on: A549
# [14] = tested on: SF-539
# [15] = tested on: SW-620
# [16] = tested on: PC-3
# [17] = tested on: HCC 2998
# [18] = tested on: HOP-92
# [19] = tested on: MDA-MB-435
# [20] = tested on: OVCAR-3
# [21] = tested on: CAKI-1
# [22] = tested on: IGROV-1
# [23] = tested on: SK-OV-3
# [24] = tested on: NCI-H23
# [25] = tested on: RPMI-8226
# [26] = tested on: RXF 393
# [27] = tested on: KM12
# [28] = tested on: HOP-62
# [29] = tested on: U-251
# [30] = tested on: OVCAR-4
# [31] = tested on: SR
# [32] = tested on: TK-10
# [33] = tested on: SNB-19
# [34] = tested on: SN12C
# [35] = tested on: MDA-MB-231
# [36] = tested on: T47D
# [37] = tested on: COLO 205
# [38] = tested on: K562
# [39] = tested on: SK-MEL-2
# [40] = tested on: NCI-H522
# [41] = tested on: A498
# [42] = tested on: NCI/ADR-RES
# [43] = tested on: SNB-75
# [44] = tested on: OVCAR-8
# [45] = tested on: OVCAR-5
# [46] = tested on: 786-0
# [47] = tested on: Malme-3M
# [48] = tested on: SK-MEL-5
# [49] = tested on: Hs-578T
# [50] = tested on: UACC-257
# [51] = tested on: HL-60
# [52] = tested on: SK-MEL-28
# [53] = tested on: MOLT-4
# [54] = tested on: HCT-15
# [55] = tested on: LOX IMVI
# [56] = tested on: SF-295
# [57] = tested on: BT-549
# [58] = tested on: EKVX
# [59] = tested on: MDA-N
structure (smiles),measurement,setting,value
CCCCCCCCCCCCCCCCCCNc1ccn(C2OC(COP(=O)(O)OCC3OC(n4ccc(N)nc4=O)C(O)C3O)C(O)C2O)c(=O)n1 (stereo not given),GI50,[1],> 93.3 µM (inactive)
same,GI50,[2],63.8 µM (inactive)
same,GI50,[3],14.3 µM (inactive)
same,GI50,[4],18.8 µM (inactive)
same,GI50,[5],16.1 µM (inactive)
same,GI50,[6],29.9 µM (inactive)
same,GI50,[7],> 100 µM (inactive)
same,GI50,[8],42.4 µM (inactive)
same,GI50,[9],37.7 µM (inactive)
same,GI50,[10],45.2 µM (inactive)
same,GI50,[11],32 µM (inactive)
same,GI50,[12],44.2 µM (inactive)
same,GI50,[13],8.59 µM (inactive)
same,GI50,[14],> 100 µM (inactive)
same,GI50,[15],> 89.7 µM (inactive)
same,GI50,[16],39.8 µM (inactive)
same,GI50,[17],38.2 µM (inactive)
same,GI50,[18],> 51.3 µM (inactive)
same,GI50,[19],> 73.1 µM (inactive)
same,GI50,[20],> 100 µM (inactive)
same,GI50,[21],67.6 µM (inactive)
same,GI50,[22],30.3 µM (inactive)
same,GI50,[23],> 86.9 µM (inactive)
same,GI50,[24],27.5 µM (inactive)
same,GI50,[25],> 100 µM (inactive)
same,GI50,[26],> 100 µM (inactive)
same,GI50,[27],> 89.1 µM (inactive)
same,GI50,[28],29.6 µM (inactive)
same,GI50,[29],57.8 µM (inactive)
same,GI50,[30],> 72.8 µM (inactive)
same,GI50,[31],> 37.6 µM (inactive)
same,GI50,[32],> 100 µM (inactive)
same,GI50,[33],39.7 µM (inactive)
same,GI50,[34],65 µM (inactive)
same,GI50,[35],> 100 µM (inactive)
same,GI50,[36],> 78.3 µM (inactive)
same,GI50,[37],47.3 µM (inactive)
same,GI50,[38],65.8 µM (inactive)
same,GI50,[39],> 100 µM (inactive)
same,GI50,[40],> 37.8 µM (inactive)
same,GI50,[41],> 100 µM (inactive)
same,GI50,[42],47.1 µM (inactive)
same,GI50,[43],> 100 µM (inactive)
same,GI50,[44],20 µM (inactive)
same,GI50,[45],98.6 µM (inactive)
same,GI50,[46],44.7 µM (inactive)
same,GI50,[47],> 50 µM (inactive)
same,GI50,[48],> 100 µM (inactive)
same,GI50,[49],> 100 µM (inactive)
same,GI50,[50],> 100 µM (inactive)
same,GI50,[51],10.2 µM (inactive)
same,GI50,[52],> 92 µM (inactive)
same,GI50,[53],2.45 µM (inactive)
same,GI50,[54],55.6 µM
same,GI50,[55],16.5 µM (inactive)
same,GI50,[56],> 100 µM (inactive)
same,GI50,[57],> 49.5 µM (inactive)
same,GI50,[58],> 100 µM (inactive)
same,GI50,[59],> 100 µM (inactive)
O=C(CCc1cccc(O)c1)NCCCNC(=O)CCc1cccc(O)c1,GI50,[1],> 100 µM (inactive)
same,GI50,[2],> 100 µM (inactive)
same,GI50,[3],> 100 µM (inactive)
same,GI50,[4],> 100 µM (inactive)
same,GI50,[5],> 100 µM (inactive)
same,GI50,[6],> 100 µM (inactive)
same,GI50,[8],> 100 µM (inactive)
same,GI50,[9],> 100 µM (inactive)
same,GI50,[10],> 100 µM (inactive)
same,GI50,[11],> 100 µM (inactive)
same,GI50,[12],> 100 µM (inactive)
same,GI50,[13],> 100 µM (inactive)
same,GI50,[14],> 100 µM (inactive)
same,GI50,[15],> 100 µM (inactive)
same,GI50,[16],> 100 µM (inactive)
same,GI50,[17],> 100 µM (inactive)
same,GI50,[18],50.9 µM (inactive)
same,GI50,[19],> 100 µM (inactive)
same,GI50,[20],> 100 µM (inactive)
same,GI50,[21],> 100 µM (inactive)
same,GI50,[22],> 100 µM (inactive)
same,GI50,[23],> 100 µM (inactive)
same,GI50,[24],> 100 µM (inactive)
same,GI50,[25],> 100 µM (inactive)
same,GI50,[26],> 100 µM (inactive)
same,GI50,[27],> 100 µM (inactive)
same,GI50,[28],> 100 µM (inactive)
same,GI50,[29],> 100 µM (inactive)
same,GI50,[30],> 100 µM (inactive)
same,GI50,[31],> 100 µM (inactive)
same,GI50,[33],> 100 µM (inactive)
same,GI50,[34],> 100 µM (inactive)
same,GI50,[35],> 100 µM (inactive)
same,GI50,[36],> 100 µM (inactive)
same,GI50,[37],> 100 µM (inactive)
same,GI50,[38],> 100 µM (inactive)
same,GI50,[39],> 100 µM (inactive)
same,GI50,[40],> 100 µM (inactive)
same,GI50,[41],> 100 µM (inactive)
same,GI50,[42],> 100 µM (inactive)
same,GI50,[44],> 100 µM (inactive)
same,GI50,[45],> 100 µM (inactive)
same,GI50,[46],> 100 µM (inactive)
same,GI50,[47],> 100 µM (inactive)
same,GI50,[48],> 100 µM (inactive)
same,GI50,[49],> 100 µM (inactive)
same,GI50,[50],> 100 µM (inactive)
same,GI50,[51],< 0.01 µM (active)
same,GI50,[52],> 100 µM (inactive)
same,GI50,[53],> 100 µM (inactive)
same,GI50,[54],> 100 µM
same,GI50,[55],> 100 µM (inactive)
same,GI50,[56],> 100 µM (inactive)
same,GI50,[57],> 100 µM (inactive)
same,GI50,[58],> 100 µM (inactive)
same,GI50,[59],> 100 µM (inactive)
